US9340577B2, “HLA binding motifs and peptides and their uses” (priority 1992, dated 2016)
No end group written: not given here.

What was measured:
Format in all cases: binding
HLA-A1 (A*0101) = HLA-A1 (A*0101) (Homo sapiens, UniProt P04439, A114D/A174V/A182V/D101N/D185E/E176A/E190D/L180R/Q94H/R68K/S129P/T187R/V100A/V91M/W191G); test: biochemical
A2.1 HLA molecules = A2.1 HLA molecules (Homo sapiens, UniProt P04439, D140Y/D185E/D98H/E176V/E277Q/G131W/G231S/I119V/I121R/I166T/I218V/L300P/L318F/N151K/N90K/P208A/P217A/Q86G/Q94H/R138H/R169H/T345S); set-up: A*0201 / A2.1 Binding / A2 Bind. / A2 / A2.1 (binding capacity): scale not given here
HLA-A3.2 (A*0301) = HLA-A3.2 (A*0301) (Homo sapiens, UniProt P04439); test: biochemical
HLA-A11 (A*1101) = HLA-A11 (A*1101) (Homo sapiens, UniProt P04439, A114D/D185E/E176A/F33Y/L180Q/S129P/T187R); test: biochemical
HLA-A*0201 (HLA-A2.1) = HLA-A*0201 (HLA-A2.1) (Homo sapiens, UniProt P04439, D140Y/D185E/D98H/E176V/E277Q/G131W/G231S/I119V/I121R/I166T/I218V/L300P/L318F/N151K/N90K/P208A/P217A/Q86G/Q94H/R138H/R169H/T345S); test: biochemical
A*0202 = A*0202 (Homo sapiens, UniProt P04439, D140Y/D185E/D98H/E176V/E277Q/G131W/G231S/I119L/I121R/I166T/I218V/L180W/L300P/L318F/N151K/N90K/P208A/P217A/Q67R/Q86G/Q94H/R138H/R169H/T345S); test: biochemical
A*0203 = A*0203 (Homo sapiens, UniProt P04439, A173T/D140Y/D185E/D98H/E277Q/G131W/G231S/I119V/I121R/I166T/I218V/L180W/L300P/L318F/N151K/N90K/P208A/P217A/Q86G/Q94H/R138H/R169H/T345S); test: biochemical
A*0206 = A*0206 (Homo sapiens, UniProt P04439, D140Y/D185E/D98H/E176V/E277Q/F33Y/G131W/G231S/I119V/I121R/I166T/I218V/L300P/L318F/N151K/N90K/P208A/P217A/Q86G/Q94H/R138H/R169H/T345S); test: biochemical
A*6802 = A*6802 (Homo sapiens, UniProt P04439, A269V/D140Y/D185E/E176V/E277Q/E87N/F33Y/G231S/I121R/I166T/I218V/L180W/L300P/L318F/N151K/P208A/P217A/Q86R/R138H/R169H/S129P/T345S/V36M); test: biochemical
A31 (A*3101) = A31 (A*3101) (Homo sapiens, UniProt P04439, A270S/D185E/E176V/E277Q/F33T/G231S/G80R/H175R/I121M/I218V/I322F/K168Q/L300P/L318F/M331R/P217A/Q94H/R138Q/T323A/T345S/T97I/V358M); test: biochemical
A*3301 = A*3301 (Homo sapiens, UniProt P04439, A270S/D185E/E176V/E277Q/E87N/F33T/G231S/H175R/I121M/I218V/I322F/K168Q/K210R/L300P/L318F/M331R/P217A/Q86R/Q94H/R138Q/T323A/T345S/T97I/V358M/Y195H); test: biochemical
A*6801 = A*6801 (Homo sapiens, UniProt P04439, A269V/D185E/E176V/E277Q/E87N/F33Y/G231S/I121M/I166T/I218V/L180W/L300P/L318F/N151K/P208A/P217A/Q86R/R169H/T345S); test: biochemical

Compound	A1 (HLA-A1 (A*0101))	A2 Bind. (A2.1 HLA molecules)	IC50 (HLA-A*0201 (HLA-A2.1)) [nM]	IC50 (A*0202) [nM]	IC50 (A*0203) [nM]	IC50 (A*0206) [nM]	IC50 (A*6802) [nM]	other results
SLLTFMIAA	0.5300	0.5300	–	–	–	–	–	–
LLGRRGWEV	0.0142	0.0142	–	–	–	–	–	–
AVLSIVNRV	0.0132	0.0132	–	–	–	–	–	–
SLCADARMYGV	0.0140	0.0140	–	–	–	–	–	–
LLQYWSQEL	0.0265	0.0265	–	–	–	–	–	–
ALTVVWLLV	0.0390	0.0390	–	–	–	–	–	–
MLQLTVWGI	0.2450	0.2450	–	–	–	–	–	–
ALLYKLDIV	0.0362	0.0362	–	–	–	–	–	–
IAATYNFAV	0.0540	0.0540	–	–	–	–	–	–
VADKALKFY [Peptide E6-69]	–	–	–	–	–	–	–	binding to HLA-A3.2 (in words) (HLA-A3.2 (A*0301); HPV 16 E6/E7 9-mers): bound; binding class for HLA-A11.2 (HLA-A11 (A*1101)): weak affinity; binding to HLA-A11.2 (in words) (HLA-A11 (A*1101)): bound; binding to HLA-A1 (in words) (HLA-A1 (A*0101)): bound
FMIAATYNFAV	0.4950	0.4950	–	–	–	–	–	–
TIIVHLNESV	0.0350	0.0350	–	–	–	–	–	–
ALFLGFLGAA	0.4950	0.4950	–	–	–	–	–	–
ALFLGFLGA	0.0945	0.0945	–	–	–	–	–	–
LLNATDIAV	0.0607	0.0607	–	–	–	–	–	–
LLNATDIAVA	0.0117	0.0117	–	–	–	–	–	–
FLGAAGSTM	0.0190	0.0190	–	–	–	–	–	–
RFEDPTRRPY [Peptide 78.0005]	–	–	–	–	–	–	–	IC50 (HLA-A1 (A*0101)): 19200 nM
YVAWKYIYY [Peptide 88.0433]	–	–	–	–	–	–	–	IC50 (HLA-A1 (A*0101)): 310 nM
TVWGIKQLQA	0.0150	0.0150	–	–	–	–	–	–

Compound	A1 (HLA-A1 (A*0101))	A2 Bind. (A2.1 HLA molecules)	IC50 (HLA-A*0201 (HLA-A2.1)) [nM]	IC50 (A*0202) [nM]	IC50 (A*0203) [nM]	IC50 (A*0206) [nM]	IC50 (A*6802) [nM]	other results
LLVFACSAV	0.0107	0.0107	–	–	–	–	–	–
FLYGALLL	0.0345	0.0345	–	–	–	–	–	–
RMYGVLPWI	0.1650	0.1650	–	–	–	–	–	–
YSDIRELRHY [Peptide 86.0055]	–	–	–	–	–	–	–	IC50 (HLA-A1 (A*0101)): 9.9 nM
WLWYIKIFI	0.0355	0.0355	–	–	–	–	–	–
SLLNATDIAV	0.1050	0.1050	–	–	–	–	–	–
WALTVVWLL	0.0415	–	–	–	–	–	–	–
FLYGALLLA	1.9000	1.9000	–	–	–	–	–	–
GLVGLRIVFA	0.0195	0.0195	–	–	–	–	–	–
RVIEVLQRA	0.1963	0.1963	–	–	–	–	–	–
IISLWDQSL	0.0179	0.0179	–	–	–	–	–	–
QQIEFVSFL [Peptide 1578.16]	–	–	19	3.3	14	49	44	–
LQGSVICFV [Peptide 1578.06]	–	–	23	33	21	52	3560	–
FLSALKLFL [Peptide 1578.17]	–	–	17	2.8	11	45	2150	–
NVAEGKEVV [Peptide 9013.0015]	–	–	> 20000	1310	4750	> 20000	354	–
TLKLTIEST [Peptide 9013.0010]	–	–	18300	80	24	> 20000	> 20000	–
CC(C)C[C@H](NC(=O)[C@@H](N)CCCNC(=N)N)C(=O)N1CCC[C@H]1C(=O)N[C@@H](CCC(=O)O)C(=O)N[C@@H](C)C(=O)N[C@@H](C)C(=O)N1CCC[C@H]1C(=O)N1CCC[C@H]1C(=O)N[C@H](C(=O)N[C@H](C(=O)O)C(C)C)C(C)C [Peptide 1323.17]	–	–	152	32	18	240	> 20000	–
LLFWNPPTTA [Peptide 9013.0123]	–	–	25	1.3	1.6	1170	2140	–
FLQSTQELFI [Peptide 9013.0179]	–	–	95	3.7	59	1110	> 20000	–
GMIDDVTPI [Peptide 1578.24]	–	–	25	0.2	0.63	24	> 20000	–

Compound	A1 (HLA-A1 (A*0101))	A2 Bind. (A2.1 HLA molecules)	IC50 (HLA-A*0201 (HLA-A2.1)) [nM]	IC50 (A*0202) [nM]	IC50 (A*0203) [nM]	IC50 (A*0206) [nM]	IC50 (A*6802) [nM]	other results
TILQQLLFI [Peptide 1525.26]	–	–	95	2790	367	91	7030	–
QLSTQELFI [Peptide 9013.0057]	–	–	65	4.5	27	7470	8170	–
HLQVLFIAKI [Peptide 9013.0244]	–	–	5930	789	29	121	> 20000	–
FQGSVISFV [Peptide 1578.38]	–	–	15	1.8	1.8	13	564	–
MAFEYALLA [Peptide 1578.09]	–	–	226	52	74	100	29	–
VLAEAMSRV [Peptide 1516.10]	–	–	40	2.6	3.7	75	487	–
CVSHRGLYY [Peptide 88.0401]	–	–	–	–	–	–	–	IC50 (HLA-A3.2 (A*0301)): 27 nM; IC50 (A31 (A*3101)): > 20000 nM; IC50 (A*3301): > 20000 nM; IC50 (A*6801): > 20000 nM; IC50 (HLA-A1 (A*0101)): 108 nM
TVNNSGSYV [Peptide 9013.0064]	–	–	16600	310	39	> 20000	44	–
QITPLCVTL [Peptide 1516.13]	–	–	976	124	4390	634	2870	–
TLFNVTRNDV [Peptide 9013.0230]	–	–	1480	69	25	4840	> 20000	–
RMLQHLLFI [Peptide 1545.04]	–	–	16	10	4	14	> 20000	–
FIQGAVISFV [Peptide 1578.12]	–	–	255	12	18	345	394	–
RLQLSNGNRTV [Peptide 9013.0328]	–	–	5900	128	57	> 20000	4840	–
RVLQQLLFV [Peptide 1545.05]	–	–	10	1010	29	6.4	> 20000	–
LLIESTPFNVA [Peptide 9013.0268]	–	–	121	3.3	3.5	107	> 20000	–
TLELFIPNITV [Peptide 9013.0299]	–	–	161	502	15800	2330	1040	–
GLSAGATVGV [Peptide 9013.0250]	–	–	97	2.9	2.8	1100	1150	–
EVLLLVHNV [Peptide 9013.0021]	–	–	3030	6240	6600	107	3	–
